The test system of test [1] is HIV-infected Jurkat cell clones (C16, 115 and N6). Nature of the test: Jurkat HIV Latency assay (HIV-expressed luciferase). The format is cell-based. Particulars: Homo sapiens, averaged potency for HIV latency disruption in Jurkat HIV cells, 24 hours incubation, read-out: Jurkat Mean PXC50 (converted). On the procedure:
For the Jurkat HIV Latency assay, compounds were dissolved and titrated in DMSO and diluted 100-fold in assay medium (RPMI-1640 containing 10% fetal bovine serum) containing an equal mixture of three HIV-infected Jurkat cell clones (C16, 115 and N6) at a total concentration of 1-2×10^5 cells/mL. To test stability, compounds are pre-incubated in assay medium for 48 hours at 37° C. prior to adding cells (48 hr EC50). Compounds that induce HIV expression result in a dose-dependent production of the HIV expressed luciferase enzyme. After the incubation of cells with compound for 24 hours at 37° C., HIV activation and cytotoxicity are determined by measuring luminescence after the addition of Promega Steady-Glo® Luciferase Assay reagent or CellTiter-Glo® Luminescent Cell Viability Assay reagent, respectively.

In test [2] the test system is CD4+ T cells from HIV-infected donors. In words: HIV latency disruption in primary patient CD4+ T cells (HIV gag RNA by RT-qPCR). The format is cell-based. The conditions noted are these: Homo sapiens. On the procedure: For the assessment of compound activity in primary patient cells, PBMCs were obtained by continuous-flow leukapheresis from HIV-infected, antiretrovirally-treated, aviremic patients whose plasma HIV-1 RNA was less than 50 copies/mL at the time of collection. PBMCs were isolated by Ficoll-Hypaque density gradient centrifugation and cryopreserved in the vapor phase of liquid nitrogen. On the day of assay, cells were rapidly thawed to room temperature in a 37° C. water bath and total CD4+ T cells were isolated by negative selection (Stemcell Technologies). CD4+ T cells were reconstituted in assay medium (RPMI-1640 containing 10% fetal bovine serum, 10 ug/mL Fuzeon® and 200 nM Rilpivirin) and 5×10^6 were plated onto 2 mL 96-well polypropylene plates. Compounds were dissolved in DMSO, diluted 1:250 into assay medium and then titrated into assay medium supplemented with 0.4% DMSO with a minimum of 3 biological replicates per each treatment condition. Compound titrations were transferred to the cells and the assay plates were incubated at 37° C. for 24 hours. Following incubation, the assay plates were centrifuged at 400×g for 10 minutes and the cell-free supernatants were removed and discarded. The nucleic acid from the cell pellets were extracted, purified and segregated into RNA and DNA components using AllPrep DNA/RNA 96-well kits (Qiagen). HIV reactivation was quantified from the RNA fraction by one-step RT-qPCR (applied Biosystems) using primers and probe that target gag messenger RNA. HIV copies were calculated based on extrapolations from standard curves generated with known quantities of synthetic target HIV gag DNA in the same PCR reaction plate as the samples. A minimum of 3 technical RT-qPCR replicates were run for each biological replicate.
Data were normalized and modeled accordingly raw data were used to calculate the absolute number of HIV-gag RNA copies per million CD4+ T cells, with the value for each compound and concentration based on the averaged value of 3 to 5 biological replicates, with each biological replicate value being the average of 3 technical RT-qPCR replicates.
The dose-response curve was fit to an unconstrained four parameter logistic equation, defined as: y=Vmax{1−[x^n÷(K^n+x^n)]}+Y2 • Where: • x=compound concentration • y=normalized response data • Vmax=upper bound of response • K=EC50 • Y2=lower bound or baseline of response • n=hill coefficient
An example of dose-response HIV latency disruption in vitro is presented in FIG. 1 comparing the compound of invention (Example-1) to the compound of prior art (Compound-A) in peripheral blood CD4+ T cells from a HIV-infected fully-suppressed subject. […]

Setting [3] is: average potency from multiple donors, CD4+ T cells from HIV-infected donors, 24 hours, gag RNA, read-out: CD4 Mean PXC50 (converted).

SMILES strings stand for the structures. Like-named read-outs stand apart in the source and are kept apart here.

Turning to `O=C1CCCN1Cc1nnc(Sc2ncnc3occ(-c4ccc(Cl)cc4)c23)o1` [Example 1, 1-((5-((5-(4-chlorophenyl)furo[2,3-d]pyrimidin-4-yl)thio)-1,3,4-oxadiazol-2-yl)methyl)pyrrolidin-2-one], the EC50 is 632 nM in test [1]; 47 nM in test [2] (FIG. 1, peripheral blood CD4+ T cells from a HIV-infected fully-suppressed subject, cell-associated HIV gag RNA, 4-parameter logistic regression, read-out: EC50); 35.7 nM in test [2] (setting [3]).

As to `O=C1CCCN1Cc1nnc(Sc2ncnc3occ(-c4ccco4)c23)o1` [Example 4, 1-((5-((5-(furan-2-yl)furo[2,3-d]pyrimidin-4-yl)thio)-1,3,4-oxadiazol-2-yl)methyl)pyrrolidin-2-one], the values for the EC50 in test [1] and in test [2] (setting [3]) were 491 nM and 15 nM, respectively.

As for `O=C1CCCN1Cc1nnc(Sc2ncnc3occ(-c4cccs4)c23)o1` [Example 6, 1-((5-((5-(thiophen-2-yl)furo[2,3-d]pyrimidin-4-yl)thio)-1,3,4-oxadiazol-2-yl)methyl)pyrrolidin-2-one], the EC50 in test [1] was 902 nM.

In the case of `Cc1ccc(-c2coc3ncnc(Sc4nnc(CN5CCCC5=O)o4)c23)s1` [Example 7, 1-((5-((5-(5-methylthiophen-2-yl)furo[2,3-d]pyrimidin-4-yl)thio)-1,3,4-oxadiazol-2-yl)methyl)pyrrolidin-2-one], the EC50 is 625 nM in test [1] and 390 nM in test [2] (setting [3]).
